Patent publication US20240374545A1, “DIAGNOSIS OF IMMUNITY REDUCTION THROUGH INTESTINAL MICROFLORA ANALYSIS OF STOMACH CANCER PATIENTS, AND THERAGNOSTIC COMPOSITION USING INTESTINAL MICROFLORA” (THE CATHOLIC UNIVERSITY OF KOREA INDUSTRY-ACADEMIC …, priority 2022, published 2024)

Tests used:
[1] = system: AGS cell line, a stomach cancer cell line; test: Apoptosis of AGS stomach cancer cell line by Annexin/PI flow cytometry (SD217); format: cell-based; conditions: 48 hours
Method: It was determined whether SD217, a novel compound of the present invention, may specifically kill stomach cancer cells. Specifically, 2×10^5 of a AGS cell line, a stomach cancer cell line, was inoculated into a 6-well plate and then treated with SD217, the novel compound of the present invention, at a concentration of 0.2 mM after overnight, and after 48 hours, stained with Annexin/PI, and then apoptotic cells were analyzed by flow cytometry. As a control group, a Vehicle group treated with the same amount of PBS was used. Thereafter, early apoptotic cells were confirmed, a ratio of late apoptotic/necrotic cells was confirmed, and thus death of the stomach cancer cell line was confirmed.
It was confirmed whether SD217, the novel compound of the present invention, induced early and late apoptosis in stomach cancer cell line. Specifically, 2×10^5 of a AGS cell line, a stomach cancer cell line, was inoculated into a 6-well plate and then treated with SD217, the novel compound of the present invention, at concentrations of 1, 5, 10, 20, and 50 mM after overnight, and after 48 hours, stained with Annexin/PI, and then apoptotic cells were analyzed by flow cytometry.

[2] = system: AGS cell line, a stomach cancer cell line; test: Stomach cancer transplant animal model (AGS subcutaneous in NSG mice), tumor growth; format: in vivo; conditions: NSG mice with AGS tumor, 50 mg/kg orally daily, compared to the Vehicle group (FIG. 3)
Method: It was confirmed whether SD217, the novel compound of the present invention, inhibited tumor growth. Specifically, a stomach cancer transplant animal model was fabricated by subcutaneously injecting 5×10^6 of the AGS cell line, a stomach cancer cell line, into 6-8-week-old immunodeficient mice (NSG). Thereafter, SD217 was orally administered daily at a concentration of 50 mg/kg. After AGS cell injection and SD217 administration, tumor size was measured three times weekly using calipers, and tumor volume was calculated by substituting the lengths in long axis and short axis of the tumor into Equation 1 below. As a control group, a Vehicle group injected with the same amount of PBS was used.

[3] = system: Programmed Death-Ligand 1 (PD-L1); test: PD-L1 positive cells in AGS stomach cancer cell line by flow cytometry; format: cell-based; conditions: AGS cells, 0.2, 0.5, and 1 mM, compared to the Vehicle group (FIG. 2)
Description: It was intended to confirm the expression of a Programmed Death-Ligand 1 (PD-L1) protein, an immunity reduction marker of stomach cancer cells, by SD217, a novel compound of the present invention. The PD-L1 protein was a surface protein of stomach cancer cells, and the PD-L1 is a protein that evaded the immune responses of T cells by binding to programmed cell death-1 (PD-1), a surface protein of activated T cells. […] Specifically, in the same manner as in Example 1, AGS cells, a stomach cancer cell line, were treated with 0.2, 0.5, and 1 mM of SD217 and reacted. Thereafter, PD-L1 positive cells were analyzed by flow cytometry. As a control group, a Vehicle group treated with PBS was used, and as a positive control group, 1 mM Metformin was used.

[4] = AGS cells, 1, 5, 10, 20, and 50 mM, compared to the Vehicle group (FIG. 4)

N=C(N)NC(=N)Nc1ccc(F)cc1F [SD217, 1-(2,4-difluorophenyl) biguanide]
apoptosis ([1]; AGS cells, 0.2 mM, Annexin/PI, compared to the Vehicle group (FIG. 1)): significantly increased
early apoptosis [1, 4]: induced in a concentration-dependent manner
late apoptosis [1, 4]: induced in a concentration-dependent manner
tumor growth [2]: significantly inhibited
tumor volume [2]: significantly reduced
number of PD-L1 positive cells [3]: significantly reduced
